Measured values from patent US5284853A, “Angiotensin II receptor blocking 2,3,6 substituted quinazolinones” (American Cyanamid Company, priority 1993, dated 1994).
Where “and” joins values, the source holds several entries; their conditions need not be identical. Equal entries are not always repeated.

Test system: Angiotensin II (AII) vasopressor response
Assay: AII Challenge: antagonism of the angiotensin II vasopressor response in conscious SHR
Assay type: in vivo, Spontaneously hypertensive rats (Male okamoto-Aoki SHR)
Conditions: for Average Change / Inhibition: n = 2; for Change / Control Before AII / Response After AII: per rat
[1] = 5 mg/kg I.V., AII 0.05 mcg/kg IV, 30 min post dose
[2] = 5 mg/kg I.V., AII 0.05 mcg/kg IV, 60 min post dose
[3] = 5 mg/kg I.V., AII 0.05 mcg/kg IV, 90 min post dose
[4] = 5 mg/kg I.V., AII 0.05 mcg/kg IV, 120 min post dose
[5] = 5 mg/kg I.V., AII 0.05 mcg/kg IV, 180 min post dose
[6] = 5 mg/kg I.V., AII 0.1 mcg/kg IV, 30 min post dose
[7] = 5 mg/kg I.V., AII 0.1 mcg/kg IV, 60 min post dose
[8] = 5 mg/kg I.V., AII 0.1 mcg/kg IV, 90 min post dose
[9] = 5 mg/kg I.V., AII 0.1 mcg/kg IV, 120 min post dose
[10] = 5 mg/kg I.V., AII 0.1 mcg/kg IV, 180 min post dose
[11] = 15 mg/kg I.V., AII 0.05 mcg/kg IV, 30 min post dose
[12] = 15 mg/kg I.V., AII 0.05 mcg/kg IV, 60 min post dose
[13] = 15 mg/kg I.V., AII 0.05 mcg/kg IV, 90 min post dose
[14] = 15 mg/kg I.V., AII 0.05 mcg/kg IV, 120 min post dose
[15] = 15 mg/kg I.V., AII 0.05 mcg/kg IV, 180 min post dose
[16] = 15 mg/kg I.V., AII 0.1 mcg/kg IV, 30 min post dose
[17] = 15 mg/kg I.V., AII 0.1 mcg/kg IV, 60 min post dose
[18] = 15 mg/kg I.V., AII 0.1 mcg/kg IV, 90 min post dose
[19] = 15 mg/kg I.V., AII 0.1 mcg/kg IV, 120 min post dose
[20] = 15 mg/kg I.V., AII 0.1 mcg/kg IV, 180 min post dose

CCCCc1nc2ccc(C3CC(c4ccc(C)o4)=NO3)cc2c(=O)n1Cc1ccc(-c2ccccc2-c2nnn[nH]2)cc1 (stereo not shown) [Example 19]
Average Change [1]: 15.5 mmhg | Inhibition [1]: 72% | Change [1]: 11 mmhg and 20 mmhg | Control Before AII [1]: 165 mmhg and 200 mmhg | Response After AII [1]: 176 mmhg and 180 mmhg | Average Change [2]: 15 mmhg | Inhibition [2]: 73% | Change [2]: 20 mmhg and 10 mmhg | Control Before AII [2]: 160 mmhg and 195 mmhg | Response After AII [2]: 180 mmhg and 205 mmhg | Average Change [3]: 20 mmhg | Inhibition [3]: 64% | Change [3]: 25 mmhg and 15 mmhg | Control Before AII [3]: 155 mmhg and 190 mmhg | Response After AII [3]: 180 mmhg and 205 mmhg | Average Change [4]: 25 mmhg | Inhibition [4]: 55% | Change [4]: 35 mmhg and 15 mmhg | Control Before AII [4]: 150 mmhg and 175 mmhg | Response After AII [4]: 185 mmhg and 190 mmhg | Average Change [5]: 25 mmhg | Inhibition [5]: 55% | Change [5]: 33 mmhg and 17 mmhg | Control Before AII [5]: 165 mmhg and 185 mmhg | Response After AII [5]: 198 mmhg and 202 mmhg | Average Change [6]: 17.5 mmhg | Inhibition [6]: 83% | Change [6]: 20 mmhg and 15 mmhg | Control Before AII [6]: 160 mmhg and 205 mmhg | Response After AII [6]: 180 mmhg and 220 mmhg | Average Change [7]: 21 mmhg | Inhibition [7]: 68% | Change [7]: 25 mmhg and 17 mmhg | Control Before AII [7]: 160 mmhg and 193 mmhg | Response After AII [7]: 185 mmhg and 210 mmhg | Average Change [8]: 24 mmhg | Inhibition [8]: 63% | Change [8]: 25 mmhg and 23 mmhg | Control Before AII [8]: 175 mmhg and 187 mmhg | Response After AII [8]: 200 mmhg and 210 mmhg | Average Change [9]: 22.5 mmhg | Inhibition [9]: 65% | Change [9]: 20 mmhg and 25 mmhg | Control Before AII [9]: 165 mmhg and 175 mmhg | Response After AII [9]: 185 mmhg and 200 mmhg | Average Change [10]: 27.5 mmhg | Inhibition [10]: 58% | Change [10]: 25 mmhg and 30 mmhg | Control Before AII [10]: 170 mmhg and 185 mmhg | Response After AII [10]: 195 mmhg and 215 mmhg | Average Change [11]: 5 mmhg | Inhibition [11]: 83% | Change [11]: 0 mmhg and 10 mmhg | Control Before AII [11]: 165 mmhg and 150 mmhg | Response After AII [11]: 165 mmhg and 160 mmhg | Average Change [12]: 10 mmhg | Inhibition [12]: 67% | Change [12]: 10 mmhg | Control Before AII [12]: 155 mmhg and 150 mmhg | Response After AII [12]: 165 mmhg and 160 mmhg | Average Change [13]: 5 mmhg | Inhibition [13]: 83% | Change [13]: 5 mmhg | Control Before AII [13]: 155 mmhg and 150 mmhg | Response After AII [13]: 160 mmhg and 155 mmhg | Average Change [14]: 7.5 mmhg | Inhibition [14]: 75% | Change [14]: 5 mmhg and 10 mmhg | Control Before AII [14]: 150 mmhg | Response After AII [14]: 155 mmhg and 160 mmhg | Average Change [15]: 7.5 mmhg | Inhibition [15]: 75% | Change [15]: 0 mmhg and 15 mmhg | Control Before AII [15]: 160 mmhg and 140 mmhg | Response After AII [15]: 160 mmhg and 155 mmhg | Average Change [16]: 5 mmhg | Inhibition [16]: 89% | Change [16]: 0 mmhg and 10 mmhg | Control Before AII [16]: 165 mmhg and 160 mmhg | Response After AII [16]: 165 mmhg and 170 mmhg | Average Change [17]: 5 mmhg | Inhibition [17]: 89% | Change [17]: 0 mmhg and 10 mmhg | Control Before AII [17]: 165 mmhg and 160 mmhg | Response After AII [17]: 165 mmhg and 170 mmhg | Average Change [18]: 7.5 mmhg | Inhibition [18]: 83% | Change [18]: 10 mmhg and 5 mmhg | Control Before AII [18]: 155 mmhg and 150 mmhg | Response After AII [18]: 165 mmhg and 155 mmhg | Average Change [19]: 7.5 mmhg | Inhibition [19]: 83% | Change [19]: 10 mmhg and 5 mmhg | Control Before AII [19]: 155 mmhg | Response After AII [19]: 165 mmhg and 160 mmhg | Average Change [20]: 10 mmhg | Inhibition [20]: 78% | Change [20]: 0 mmhg and 20 mmhg | Control Before AII [20]: 170 mmhg and 150 mmhg | Response After AII [20]: 170 mmhg
